The subject of the assay is P388 leukemia ip, CD2F1 mice, survival T/C. In words: NCI In Vivo Anticancer Drug Screen. Data for tumor model P388 Leukemia (intraperitoneal) in CD2F1 (CDF1) mice. The following applies: endpoint: median survival time, higher = longer survival. The method in brief: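 Mice carrying the transplanted tumor received test compound or vehicle. Survival was recorded in each group, and the value is the treated-group measurement divided by that of the vehicle-treated control group.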

[1] abbreviates: dose: 50.0 mg/kg/injection, schedule: Q01DX005 (ip), vehicle: saline.
Where [2] appears, read: dose: 100.0 mg/kg/injection, schedule: Q01DX005 (ip), vehicle: saline.
Setting [3] is: dose: 60.0 mg/kg/injection, schedule: Q01DX005 (ip), vehicle: Klucel (hydroxypropylcellulose) (HPC).
Setting [4] is: dose: 120.0 mg/kg/injection, schedule: Q01DX005 (ip), vehicle: Klucel (hydroxypropylcellulose) (HPC).
[5] abbreviates: dose: 50.0 mg/kg/injection, schedule: Q01DX009 (ip), vehicle: Klucel (hydroxypropylcellulose) (HPC).
Setting [6] is: dose: 100.0 mg/kg/injection, schedule: Q01DX009 (ip), vehicle: Klucel (hydroxypropylcellulose) (HPC).
Where [7] appears, read: dose: 200.0 mg/kg/injection, schedule: Q01DX009 (ip), vehicle: Klucel (hydroxypropylcellulose) (HPC).
Setting [8] is: dose: 100.0 mg/kg/injection, schedule: Q04DX003 (ip), vehicle: saline with Tween-80.
The mark [9] stands for this setting: dose: 50.0 mg/kg/injection, schedule: Q01DX009 (ip), vehicle: saline with Tween-80.
[10] abbreviates: dose: 100.0 mg/kg/injection, schedule: Q01DX009 (ip), vehicle: saline with Tween-80.
The mark [11] stands for this setting: dose: 200.0 mg/kg/injection, schedule: Q01DX009 (ip), vehicle: saline with Tween-80.
Where [12] appears, read: dose: 60.0 mg/kg/injection, schedule: Q01DX005 (ip), vehicle: saline with Tween-80.
Where [13] appears, read: dose: 120.0 mg/kg/injection, schedule: Q01DX005 (ip), vehicle: saline with Tween-80.
Where [14] appears, read: dose: 240.0 mg/kg/injection, schedule: Q01DX005 (ip), vehicle: saline with Tween-80.
[15] abbreviates: dose: 50.0 mg/kg/injection, schedule: Q01DX005 (ip), vehicle: saline with Tween-80.

Where “and” joins values, the source holds several entries; their conditions need not be identical. Equal values may be shown once. Toxic doses and inconclusive results are not listed.

Regarding `COc1c(OC(C)=O)c(OC(C)=O)cc2c1-c1ccc(OC)c(=O)cc1C(NC(C)=O)CC2` (stereo unspecified), the T/C was 117 % of control (dose: 0.25 mg/kg/injection, schedule: Q01DX005 (ip), vehicle: saline); 123 % of control (dose: 0.5 mg/kg/injection, schedule: Q01DX005 (ip), vehicle: saline); 155 % of control (dose: 4.0 mg/kg/injection, schedule: Q01DX005 (ip), vehicle: saline); 163 % of control (dose: 8.0 mg/kg/injection, schedule: Q01DX005 (ip), vehicle: saline); 172 % of control (dose: 16.0 mg/kg/injection, schedule: Q01DX005 (ip), vehicle: saline).
On to `CN(C)CCNCCN`, for which the T/C is 96 % of control under setting [1] and 99 % of control under setting [2].
For the molecule `CCOC(=O)C1C(c2ccc(OC)cc2)c2cc3c(cc2OC1(C)N1CCCC1)OCO3` (stereo unspecified), the T/C is 98 % of control under setting [3]; 96 % of control under setting [4]; 93 % of control (dose: 240.0 mg/kg/injection, schedule: Q01DX005 (ip), vehicle: Klucel (hydroxypropylcellulose) (HPC)).
`C=CC(C)(C)C12CC3C(=O)Nc4ccccc4C(=O)N3C1Nc1ccccc12` (stereo unspecified): the T/C is, setting by setting: (dose: 25.0 mg/kg/injection, schedule: Q01DX005 (ip), vehicle: distilled water + Tween-80 + alcohol) 95 % of control; (dose: 50.0 mg/kg/injection, schedule: Q01DX005 (ip), vehicle: distilled water + Tween-80 + alcohol) 97 % of control; (dose: 100.0 mg/kg/injection, schedule: Q01DX005 (ip), vehicle: distilled water + Tween-80 + alcohol) 103 % of control; (dose: 200.0 mg/kg/injection, schedule: Q01DX005 (ip), vehicle: distilled water + Tween-80 + alcohol) 98 % of control.
Turning to `CS(=O)(=O)c1cccc(C(=O)O)c1`, the T/C is, setting by setting: under setting [5], 108 % of control; under setting [6], 108 % of control; under setting [7], 99 % of control.
As for `O=c1c(Cl)c2oc3cc([N+](=O)[O-])ccc3nc-2c(Cl)c1Cl`, the T/C under setting [5] is 107 % of control, the T/C under setting [6] was 99 % of control and the T/C under setting [7] was 91 % of control.
As to `CC(C)N=C(Cc1ccccc1)NC(C)(C)C`, the T/C (dose: 12.5 mg/kg/injection, schedule: Q01DX009 (ip), vehicle: saline) is 111 % of control; the T/C (dose: 25.0 mg/kg/injection, schedule: Q01DX009 (ip), vehicle: saline) is 101 % of control; the T/C (dose: 50.0 mg/kg/injection, schedule: Q01DX009 (ip), vehicle: saline) is 98 % of control.
Turning to `N#Cc1nnc2cc(-c3ccccc3)nn2c1-c1ccco1`, the T/C under setting [3] is 98 % of control and the T/C under setting [4] is 90 % of control.
For the molecule `CNc1ccc(N=Nc2ccc3ncccc3c2)cc1`, the T/C (dose: 3.13 mg/kg/injection, schedule: Q01DX009 (ip), vehicle: saline with Tween-80) was 104 % of control; the T/C (dose: 6.25 mg/kg/injection, schedule: Q01DX009 (ip), vehicle: saline with Tween-80) is 95 % of control; the T/C (dose: 12.5 mg/kg/injection, schedule: Q01DX009 (ip), vehicle: saline with Tween-80) was 90 % of control; the T/C (dose: 25.0 mg/kg/injection, schedule: Q04DX003 (ip), vehicle: saline with Tween-80) is 100 % of control; the T/C (dose: 50.0 mg/kg/injection, schedule: Q04DX003 (ip), vehicle: saline with Tween-80) was 90 % of control; the T/C under setting [8] was 86 % of control.
As to `c1csc(CSc2ncnc3nc[nH]c23)c1`, the T/C is, setting by setting: under setting [8], 100 % of control; (dose: 200.0 mg/kg/injection, schedule: Q04DX003 (ip), vehicle: saline with Tween-80) 100 % of control; (dose: 264.0 mg/kg/injection, schedule: Q04DX003 (ip), vehicle: saline with Tween-80) 100 % of control; (dose: 400.0 mg/kg/injection, schedule: Q04DX003 (ip), vehicle: saline with Tween-80) 109 % of control.
As to `CCn1c2ccccc2c2cc(N=Nc3[nH]c4ccccc4c3CN(C)C)ccc21`, the T/C is 107 % of control and 108 % of control (2×) under setting [9]; 105 % of control and 106 % of control under setting [10]; 100 % of control and 115 % of control and 118 % of control under setting [11].
Take `CSc1ccc(OC(=O)Nc2ccc(Cl)c(Cl)c2)c(C)c1`: the T/C is, setting by setting: (dose: 50.0 mg/kg/injection, schedule: Q01DX009 (ip), vehicle: saline + alcohol) 87 % of control; (dose: 100.0 mg/kg/injection, schedule: Q01DX009 (ip), vehicle: saline + alcohol) 87 % of control; (dose: 200.0 mg/kg/injection, schedule: Q01DX009 (ip), vehicle: saline + alcohol) 95 % of control.
Turning to `N#Cc1ccc(NC(=O)Nc2ccc([N+](=O)[O-])cc2Cl)cc1`, the T/C is 93 % of control under setting [12]; 86 % of control under setting [13]; 89 % of control and 92 % of control under setting [14].
`O=C(Nc1cccc(Cl)c1)/C(Cl)=C1/Sc2ccccc2NC1=O`: the T/C under setting [15] was 105 % of control; the T/C (dose: 100.0 mg/kg/injection, schedule: Q01DX005 (ip), vehicle: saline with Tween-80) was 98 % of control; the T/C (dose: 200.0 mg/kg/injection, schedule: Q01DX005 (ip), vehicle: saline with Tween-80) was 98 % of control.
`CCOC(=O)c1ccc(N(CC(O)CN=[N+]=[N-])S(=O)(=O)c2ccc(C)cc2)cc1` (stereo unspecified): the T/C was 112 % of control under setting [12], 102 % of control under setting [13] and 96 % of control under setting [14].
For `CCC1=C[C@@H]2C[C@](C(=O)OC)(c3cc4c(cc3OC)N(C)[C@H]3[C@@](O)(C(=O)OC)[C@H](OC(C)=O)[C@]5(CC)C=CCN6CC[C@]43[C@@H]65)c3[nH]c4ccccc4c3CCN(C1)C2=O`, the T/C is, setting by setting: (dose: 4.7 mg/kg/injection, schedule: Q01DX001 (ip), vehicle: other) 113 % of control; (dose: 9.4 mg/kg/injection, schedule: Q01DX001 (ip), vehicle: other) 117 % of control; (dose: 37.5 mg/kg/injection, schedule: Q01DX001 (ip), vehicle: suspension in saline) 195 % of control.
Take `CC(=O)OCc1c(COC(C)=O)c(-c2ccc(Cl)cc2)n2c1CCC2`: the T/C under setting [5] was 118 % of control.
On to `COc1ccc(C2(c3ccccc3)c3ccccc3C(=O)c3ccccc32)cc1`, for which the T/C was 101 % of control (dose: 50.0 mg/kg/injection, schedule: Q01DX005 (ip), vehicle: Klucel (hydroxypropylcellulose) (HPC)); 103 % of control (dose: 100.0 mg/kg/injection, schedule: Q01DX005 (ip), vehicle: Klucel (hydroxypropylcellulose) (HPC)); 99 % of control (dose: 200.0 mg/kg/injection, schedule: Q01DX005 (ip), vehicle: Klucel (hydroxypropylcellulose) (HPC)).
As to `COCC1(COC)CCN(C2CC(O[C@H]3C[C@](O)(C(C)=O)Cc4c(O)c5c(c(O)c43)C(=O)c3c(OC)cccc3C5=O)OC(C)C2O)CC1` (stereo partly specified), the T/C (dose: 1.56 mg/kg/injection, schedule: Q04DX003 (ip), vehicle: water) was 103 % of control; the T/C (dose: 3.12 mg/kg/injection, schedule: Q04DX003 (ip), vehicle: water) was 110 % of control and 113 % of control; the T/C (dose: 12.5 mg/kg/injection, schedule: Q04DX003 (ip), vehicle: water) was 183 % of control and 212 % of control; the T/C (dose: 25.0 mg/kg/injection, schedule: Q04DX003 (ip), vehicle: water) was 152 % of control.
Take `CCCCCCCCCCCC1=C(O)C(=O)C(Cl)=C(O)C1=O`: the T/C was 98 % of control (dose: 12.5 mg/kg/injection, schedule: Q01DX005 (ip), vehicle: saline with Tween-80); 97 % of control (dose: 25.0 mg/kg/injection, schedule: Q01DX005 (ip), vehicle: saline with Tween-80); 102 % of control and 90 % of control under setting [15].
Take `CC1=N/C(=C\c2ccccc2Br)C(=O)O1`: the T/C by setting is: under setting [1], 114 % of control; under setting [2], 119 % of control; (dose: 200.0 mg/kg/injection, schedule: Q01DX005 (ip), vehicle: saline) 119 % of control.
In the case of `CC(=O)N1CCNC(=O)/C1=C1\CCOC1=O`, the T/C is, setting by setting: under setting [9], 99 % of control; under setting [10], 101 % of control; under setting [11], 110 % of control.
On to `COc1cccc(C(=O)NCCNCCNC(=O)c2cccc(OC)c2OC)c1OC`, for which the T/C is 108 % of control under setting [12], 104 % of control under setting [13] and 94 % of control under setting [14].
For `CCCCCCCCCCCCCCCCS(=O)(=O)N/N=C(/c1ccc(Cl)cc1)N1CCCCC1`, the T/C is, setting by setting: under setting [5], 100 % of control; under setting [6], 102 % of control; under setting [7], 92 % of control.

The values are drawn from PubChem BioAssay AID330 (DTP/NCI, 2004).
